Consider three molecules from patent publication US12712060B2, “Multi-modal crypto/bio-human-machine interface” (The Regents of the University of California, priority 2022, dated 2026).

The nature of data set [1]: touch-based APAP TH-sensor (DPV) measurement on index fingertip after APAP medication intake. It counts as in vivo, human. The note with it: 60 min after intake of 650 mg APAP, APAP-free threshold 3.7 nA. The method, then:
Adopted was a similar study framework to evaluate the in-situ detection capability of APAP TH-sensor. For this context, the measured signal is defined as the voltammetric current peak height ([…]), and the threshold for determining the APAP-free state was measured as 3.7 nA (three trials). FIGS. 3D and 3E show the corresponding voltammograms measured by the APAP TH-sensor, 10 min before and 60 min after the intake of an APAP-based medication (containing 650 mg APAP). The comparison of the two voltammograms and the corresponding extracted current peaks (IP, pre-intake ~0 nA vs. IP, post-intake ~15 nA) validates that the developed TH-sensor is capable of detecting the presence of circulating APAP molecules via the devised touch-based modality.

The conditions of data set [2]: human, in vivo, 60 min.
Excerpt: Embodiments specifically employ the ethanol TH-sensor to assess whether the sensor is capable of differentiating between two states: no alcohol-intake vs. recent intake of an alcoholic beverage. For this context, defined were the measured signal S as the slope of the sensor's amperometric response, and the threshold as Sfree, avg+3×Sfree, SD, where Sfree, avg and Sfree, SD are the average and standard deviation of the signals obtained from the alcohol-free subject (three trials). […] Then performed were touch-based TH-sensor measurements before (t=−20 min) and after (t=+60 min) the intake of an alcoholic beverage (~100 mL, 12.5% alcohol).
Two human subjects participated in the characterization of each type of TH-sensor. For each trial, the subjects were instructed to wash their index fingertips with deionized (DI) water before testing and to rinse their mouth with cold water immediately after the beverage/medication intake (to avoid contamination from residue). Touch-based measurements were performed using corresponding TH-sensors before and at intermittent time points after the beverage/medication intake. The water loss from the fingertip was monitored by an evaporimeter (VapoMeter, Delfin Technologies). The fingertip temperature was monitored by a thermocouple (HT-9815, RISEPRO). […] BAC was estimated using an alcohol breathalyzer (S80, BACtrack Inc.). […]
For data set [3] the following is noted: patient, 900 mg lithium carbonate; ~0-1 h pre-intake vs ~1-2 h post-intake.
Description: Further validated was the performance of the developed TOH-ISE in an in-situ lithium adherence monitoring study. To this end, a subject prescribed lithium-based medication was recruited. […] In a control experiment, touch-based sensing and salivary lithium analysis were also performed on three healthy subjects, where circulating lithium is expected to be negligible.
In-situ TOH-ISE characterization. […] For each touch-based entry, the subjects were instructed to wash their index or middle fingertips with DI water before testing. The acquired potentiometric readouts were processed using the same method as the ex-situ experiments to extract the sensing signal. For saliva collection, the subjects were instructed to rinse their mouth with cold water before collection. The samples were collected via direct salivation using a Saliva Collection Aid (Salimetrics, CA, USA). The salivary lithium was quantified using a colorimetric lithium assay kit (Abcam ab235613, MA, USA) and Nanodrop One (Thermo Fisher, MA, USA).
For data set [4] the following is noted: cited from earlier work.

Consider `CC(=O)Nc1ccc(O)cc1` [APAP, acetaminophen], for which the “APAP TH-sensor voltammetric current peak height IP, post-intake” value in data set [1] is recorded as ~ 15 nA.
For `CCO` [ethanol], the “ethanol TH-sensor signal S (slope of amperometric response)” value in data set [2] is on record as 21.5 nA/min.
Take `O=C([O-])[O-].[Li+].[Li+]` [lithium, lithium carbonate]: in data set [3], the “TOH-ISE touch-based sensing signal, post versus pre drug intake” value was “larger signal”. In data set [4] (saliva, ~twice the corresponding serum concentrations), the “clinically relevant range in non-invasively retrievable biofluid (e.g., saliva)” value was 0.5 to 3 mM. Besides, the therapeutic window in data set [4] (severe adverse effects if overdosed) was 0.6 to 1.2 mM.
